Reference: PubChem BioAssay (NCI)
Where “and” joins values, the source holds several entries; their conditions need not be identical. Equal values may be shown once.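 Each compound was tested at five concentrations against cells in 96-well plates for 48 hours. GI50 marks 50% less growth. TGI is the concentration that stops growth completely.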

What was measured:
Assay in all cases: DTP human tumour cell line panel, 48 h
786-0 renal = tested on: 786-0 renal
A498 renal = tested on: A498 renal
A549 NSCLC = tested on: A549 NSCLC
ACHN renal = tested on: ACHN renal
CAKI-1 renal = tested on: CAKI-1 renal
CCRF-CEM leukemia = tested on: CCRF-CEM leukemia
COLO 205 colon = tested on: COLO 205 colon
DU-145 prostate = tested on: DU-145 prostate
EKVX NSCLC = tested on: EKVX NSCLC
HCC-2998 colon = tested on: HCC-2998 colon
HCT-116 colon = tested on: HCT-116 colon
HCT-15 colon = tested on: HCT-15 colon
HL-60(TB) leukemia = tested on: HL-60(TB) leukemia
HOP-62 NSCLC = tested on: HOP-62 NSCLC
HOP-92 NSCLC = tested on: HOP-92 NSCLC
HS 578T breast = tested on: HS 578T breast
HT29 colon = tested on: HT29 colon
IGROV1 ovarian = tested on: IGROV1 ovarian
K-562 leukemia = tested on: K-562 leukemia
KM12 colon = tested on: KM12 colon
LOX IMVI melanoma = tested on: LOX IMVI melanoma
M14 melanoma = tested on: M14 melanoma
MALME-3M melanoma = tested on: MALME-3M melanoma
MCF7 breast = tested on: MCF7 breast
MDA-MB-231 breast = tested on: MDA-MB-231 breast
MDA-N = tested on: MDA-N
MOLT-4 leukemia = tested on: MOLT-4 leukemia
NCI-H226 lung = tested on: NCI-H226 lung
NCI-H23 lung = tested on: NCI-H23 lung
NCI-H460 lung = tested on: NCI-H460 lung
NCI-H522 lung = tested on: NCI-H522 lung
NCI/ADR-RES ovarian = tested on: NCI/ADR-RES ovarian
OVCAR-3 ovarian = tested on: OVCAR-3 ovarian
OVCAR-4 ovarian = tested on: OVCAR-4 ovarian
OVCAR-5 ovarian = tested on: OVCAR-5 ovarian
OVCAR-8 ovarian = tested on: OVCAR-8 ovarian
PC-3 prostate = tested on: PC-3 prostate
RPMI-8226 leukemia = tested on: RPMI-8226 leukemia
RXF 393 renal = tested on: RXF 393 renal
SF-268 CNS = tested on: SF-268 CNS
SF-295 CNS = tested on: SF-295 CNS
SF-539 CNS = tested on: SF-539 CNS
SK-MEL-2 melanoma = tested on: SK-MEL-2 melanoma
SK-MEL-28 melanoma = tested on: SK-MEL-28 melanoma
SK-MEL-5 melanoma = tested on: SK-MEL-5 melanoma
SK-OV-3 ovarian = tested on: SK-OV-3 ovarian
SN12C renal = tested on: SN12C renal
SR leukemia = tested on: SR leukemia
SW-620 colon = tested on: SW-620 colon
TK-10 renal = tested on: TK-10 renal
U251 CNS = tested on: U251 CNS
UACC-257 melanoma = tested on: UACC-257 melanoma
UACC-62 melanoma = tested on: UACC-62 melanoma
UO-31 renal = tested on: UO-31 renal

`COc1cccc(-c2cc(=O)c3cc(OC)ccc3[nH]2)c1` was tested, and the GI50 (786-0 renal) was 150 nM, the TGI (786-0 renal) was 65300 nM and the TGI (A498 renal) was 111 nM. The GI50 (A549 NSCLC) was 305 nM, the TGI (A549 NSCLC) was > 100000 nM and the GI50 (ACHN renal) was 661 nM. For the same compound, the TGI (ACHN renal) was > 100000 nM, the GI50 (CAKI-1 renal) was 31.9 nM and the TGI (CAKI-1 renal) was > 100000 nM. The GI50 (CCRF-CEM leukemia) was 28.1 nM, the TGI (CCRF-CEM leukemia) was 248 nM and the GI50 (COLO 205 colon) was 74.1 nM. The TGI (COLO 205 colon) was 480 nM and 411 nM, the GI50 (DU-145 prostate) was 186 nM and the GI50 (EKVX NSCLC) was 5850 nM. The TGI (EKVX NSCLC) was > 100000 nM, the GI50 (HCC-2998 colon) was 118 nM and the TGI (HCC-2998 colon) was 2590 nM and 443 nM. The GI50 (HCT-116 colon) was 54.1 nM, the TGI (HCT-116 colon) was 22600 nM and the GI50 (HCT-15 colon) was 48.5 nM. For the same compound, the GI50 (HL-60(TB) leukemia) was 19.4 nM, the TGI (HL-60(TB) leukemia) was 405 nM and 53.6 nM and the GI50 (HOP-62 NSCLC) was 401 nM. It also gave a TGI (HOP-62 NSCLC) of 29700 nM, a GI50 (HOP-92 NSCLC) of 7150 nM and a TGI (HS 578T breast) of 885 nM. The TGI (HT29 colon) was 1420 nM, the GI50 (IGROV1 ovarian) was 250 nM and the TGI (IGROV1 ovarian) was > 100000 nM. The GI50 (K-562 leukemia) was 28.8 nM, the TGI (K-562 leukemia) was 393 nM and the GI50 (KM12 colon) was 67.1 nM. For the same compound, the TGI (KM12 colon) was > 100000 nM, the GI50 (LOX IMVI melanoma) was 62.4 nM and the GI50 (M14 melanoma) was 84 nM. The TGI (M14 melanoma) was 41500 nM, the GI50 (MALME-3M melanoma) was 47.9 nM and the TGI (MALME-3M melanoma) was > 100000 nM. The GI50 (MCF7 breast) was 296 nM, the TGI (MCF7 breast) was > 100000 nM and the TGI (MDA-MB-231 breast) was 4530 nM and 21600 nM. For the same compound, the TGI (MDA-N) was 131 nM, the GI50 (MOLT-4 leukemia) was 41.1 nM and the GI50 (NCI-H226 lung) was 121 nM. The TGI (NCI-H226 lung) was 1570 nM and 7230 nM, the GI50 (NCI-H23 lung) was 358 nM and the GI50 (NCI-H460 lung) was 82.3 nM. For the same compound, the TGI (NCI-H460 lung) was > 100000 nM, the GI50 (NCI-H522 lung) was 121 nM and 37.3 nM and the TGI (NCI-H522 lung) was 392 nM and 175 nM. The TGI (NCI/ADR-RES ovarian) was 445 nM, the GI50 (OVCAR-3 ovarian) was 25 nM and the TGI (OVCAR-3 ovarian) was 384 nM and 81.2 nM. For the same compound, the TGI (OVCAR-4 ovarian) was > 100000 nM, the GI50 (OVCAR-5 ovarian) was 528 nM and the TGI (OVCAR-5 ovarian) was > 100000 nM. For the same compound, the GI50 (OVCAR-8 ovarian) was 790 nM, the GI50 (PC-3 prostate) was 112 nM and the TGI (PC-3 prostate) was > 100000 nM. The GI50 (RPMI-8226 leukemia) was 28.8 nM, the GI50 (RXF 393 renal) was 14.4 nM and the TGI (RXF 393 renal) was 224 nM. It also gave a GI50 (SF-268 CNS) of 626 nM, a TGI (SF-268 CNS) of 24200 nM and a GI50 (SF-295 CNS) of 292 nM. The TGI (SF-539 CNS) was 451 nM, the GI50 (SK-MEL-2 melanoma) was 77.4 nM and the TGI (SK-MEL-2 melanoma) was 7110 nM and 20200 nM. For the same compound, the GI50 (SK-MEL-28 melanoma) was 612 nM and 85.2 nM, the TGI (SK-MEL-28 melanoma) was > 100000 nM and the TGI (SK-MEL-5 melanoma) was 2570 nM. For the same compound, the TGI (SK-OV-3 ovarian) was 41500 nM, the GI50 (SN12C renal) was 398 nM and the TGI (SN12C renal) was 47700 nM. The TGI (SR leukemia) was 664 nM, the GI50 (SW-620 colon) was 44.5 nM and the TGI (SW-620 colon) was > 100000 nM. For the same compound, the TGI (TK-10 renal) was 84900 nM, the GI50 (U251 CNS) was 57 nM and the TGI (U251 CNS) was 3360 nM and 13200 nM. For the same compound, the GI50 (UACC-257 melanoma) was 32.5 nM, the TGI (UACC-257 melanoma) was > 100000 nM and the GI50 (UACC-62 melanoma) was 45.9 nM. The TGI (UACC-62 melanoma) was > 100000 nM, the GI50 (UO-31 renal) was 484 nM and the TGI (UO-31 renal) was > 100000 nM.
